Assays:
Orai1 = biological target: T1, Orai1 (Homo sapiens, UniProt Q96D31); test: whole-cell patch clamp, Orai1/STIM1 co-expressing HEK […]; type: cell-based
T1 construct: with STIM1

TRPV3 = biological target: T2, TRPV3 (Homo sapiens, UniProt Q8NET8); test: whole-cell patch clamp, TRPV3-overexpressing HEK […], 2-APB-activated current; type: cell-based
T2 sequence (Q8NET8 1-790): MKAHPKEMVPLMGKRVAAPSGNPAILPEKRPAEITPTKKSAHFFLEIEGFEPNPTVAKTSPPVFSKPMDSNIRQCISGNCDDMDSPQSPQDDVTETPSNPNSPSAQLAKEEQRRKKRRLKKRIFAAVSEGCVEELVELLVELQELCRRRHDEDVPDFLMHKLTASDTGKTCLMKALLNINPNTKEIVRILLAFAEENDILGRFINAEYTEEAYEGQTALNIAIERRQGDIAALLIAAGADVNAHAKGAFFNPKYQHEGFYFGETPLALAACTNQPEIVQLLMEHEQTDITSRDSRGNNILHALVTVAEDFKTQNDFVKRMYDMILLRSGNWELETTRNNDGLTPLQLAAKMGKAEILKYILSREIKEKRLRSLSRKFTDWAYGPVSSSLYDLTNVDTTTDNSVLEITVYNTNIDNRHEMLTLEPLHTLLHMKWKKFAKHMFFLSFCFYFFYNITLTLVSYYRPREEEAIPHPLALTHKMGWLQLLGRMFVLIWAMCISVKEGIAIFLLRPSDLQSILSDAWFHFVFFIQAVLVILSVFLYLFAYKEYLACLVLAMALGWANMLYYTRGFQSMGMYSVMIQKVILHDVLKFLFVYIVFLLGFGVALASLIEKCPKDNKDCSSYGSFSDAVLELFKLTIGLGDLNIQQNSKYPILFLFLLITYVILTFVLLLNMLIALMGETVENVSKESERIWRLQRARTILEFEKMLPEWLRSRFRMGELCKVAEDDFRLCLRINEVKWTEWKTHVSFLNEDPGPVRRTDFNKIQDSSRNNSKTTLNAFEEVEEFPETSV

T1 sequence (Q96D31 whole entry): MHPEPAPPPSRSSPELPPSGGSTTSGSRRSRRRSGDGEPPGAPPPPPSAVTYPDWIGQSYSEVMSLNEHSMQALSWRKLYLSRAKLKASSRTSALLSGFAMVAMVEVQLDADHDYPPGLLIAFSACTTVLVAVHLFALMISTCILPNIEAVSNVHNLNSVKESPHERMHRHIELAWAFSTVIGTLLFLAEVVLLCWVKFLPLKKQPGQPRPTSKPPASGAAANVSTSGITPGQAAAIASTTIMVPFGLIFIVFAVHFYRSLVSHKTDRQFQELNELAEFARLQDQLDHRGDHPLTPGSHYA
T1 sequence (Q13586 23-685 partner): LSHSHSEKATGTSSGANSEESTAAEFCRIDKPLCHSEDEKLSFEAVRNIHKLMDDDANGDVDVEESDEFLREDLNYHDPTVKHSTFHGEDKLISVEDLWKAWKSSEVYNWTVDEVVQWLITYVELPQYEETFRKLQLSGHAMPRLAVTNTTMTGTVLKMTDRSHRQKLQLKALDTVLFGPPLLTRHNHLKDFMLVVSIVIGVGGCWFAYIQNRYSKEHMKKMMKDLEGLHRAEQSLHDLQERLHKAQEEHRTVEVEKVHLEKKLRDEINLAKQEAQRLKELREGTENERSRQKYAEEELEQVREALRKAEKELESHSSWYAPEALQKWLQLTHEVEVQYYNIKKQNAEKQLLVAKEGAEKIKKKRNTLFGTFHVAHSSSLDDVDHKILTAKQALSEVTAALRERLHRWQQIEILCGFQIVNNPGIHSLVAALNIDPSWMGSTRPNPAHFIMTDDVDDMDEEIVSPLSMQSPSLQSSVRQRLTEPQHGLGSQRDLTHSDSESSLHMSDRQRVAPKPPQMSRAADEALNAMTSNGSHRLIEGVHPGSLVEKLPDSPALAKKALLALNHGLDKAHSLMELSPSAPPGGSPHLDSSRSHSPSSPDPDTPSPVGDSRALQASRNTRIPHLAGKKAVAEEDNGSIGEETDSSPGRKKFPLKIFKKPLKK

Structure (SMILES): CCc1c(O)c(O)c2c(c1O)C(=O)C(O)=C(O)C2=O [Ech A, 6-ethyl-2,3,5,7,8-pentahydroxy-1,4-naphthoquinone]
- IC50 (Orai1): 2410 ± 1550 nM
- IC50 (TRPV3): 2110 ± 1050 nM

Source: publication PMC9963876, “Multiple Effects of Echinochrome A on Selected Ion Channels Implicated in Skin Physiology” (Marine Drugs, 2023)
